Data: patent EP4603105A1, “PHARMACEUTICAL COMPOSITION CONTAINING CYCLIC COMPOUND HAVING SELECTIVE KRAS INHIBITORY EFFECT AGAINST HRAS AND NRAS” (CHUGAI SEIYAKU KABUSHIKI KAISHA, priority 2022, dated 2024)
Where a SMILES comes first, the peptide text is derived from it. Bridges are numbered along the chain shown (N, C = ends). [ ]: non-standard residue; d: D form. The star is where a group is joined. hPhe(3-Cl-4-CF3) = N[C@@H](CCc1ccc(C(F)(F)F)c(Cl)c1)C(=O)O; NEtPhe(4-Me) = CCN[C@@H](Cc1ccc(C)cc1)C(=O)O; NMePhe(4-Me) = CN[C@@H](Cc1ccc(C)cc1)C(=O)O; NMeGly(cPent) = CN[C@H](C(=O)O)C1CCCC1; Hyp = O=C(O)[C@@H]1C[C@@H](O)CN1; NMeI = CC[C@H](C)[C@H](NC)C(=O)O; NMeD = CN[C@@H](CC(=O)O)C(=O)O; NMeL = CN[C@@H](CC(C)C)C(=O)O; Morpholide = C1CN(*)CCO1; NMeA = CN[C@@H](C)C(=O)O; NMeAib = CNC(C)(C)C(=O)O; Nle = CCCC[C@H](N)C(=O)O; Piperidide = C1CCN(*)CC1; Ac5c = NC1(C(=O)O)CCCC1; Aze = O=C(O)[C@@H]1CCN1; Sar = CNCC(=O)O

Key:
[1] = system: human lung cancer strain NCI-H441; type: cell-based
In short: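 Proliferation was scored by […] measured after the reagent was added to cultures kept at 37°C in 5% carbon dioxide.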

[2] = target: GDP-bound NRAS wild-type protein (Homo sapiens, UniProt P01111); experiment: Binding to NRAS by surface plasmon resonance (SPR), KD and KD ratio to KRAS; conditions: ratio of KD for GDP-bound NRAS wild-type protein to KD for KRAS
Method: (§1) Surface plasmon resonance was used to analyze the binding affinity of compounds for KRAS, NRAS, and HRAS. The apparatus used was Biacore 8K, 8K+, or T200 (GE Healthcare), and the running buffer used was HBS (10 mM HEPES-NaOH, 150 mM NaCl, pH 7.4) containing 1 mM DTT, 10 mM MgCl2, 0.01% Tween 20, 10 µM GDP, and 4% DMSO.
(§2) Biotinylated Avi-tag fusion KRAS, NRAS, and HRAS proteins were expressed in E. coli BL21 (DE3) strains, and after cells were homogenized, they were purified using Streptavidin Mutein Matrix and Superdex 75. After purification, GDP-loaded KRAS, NRAS, and HRAS proteins were immobilized on the surface of Sensor Chip CAP (Cytiva) coated with Biotin CAPture Reagent in an immobilization amount of about 100 to 300 RU. Binding of each compound was evaluated by the Single Cycle Kinetics method, and a running buffer or a compound solution was added to the RAS protein non-immobilized surface and the immobilized surface to obtain a binding response. The flow rate was set to 100 µL/min, and in the compound-adding cycle, compound solutions having different concentrations were intermittently added for 75 seconds each, starting from a low concentration. […] In the blank cycle, a running buffer was intermittently added and not the compound solution. The Biotin CAPture Reagent and RAS proteins were immobilized for each cycle, and at the end of each cycle, the sensor chip was regenerated by the regeneration solution appended to the Biotin CAPture Kit (Cytiva). Measurement was carried out at 30°C.
(§3) The resulting sensorgram was subjected to curve fitting based on a 1:1 binding model on Biacore Insight Evaluation Software or T200 Evaluation Software, and thereby the dissociation constant KD of each compound with respect to KRAS, NRAS, and HRAS was determined. […] Blank indicates a compound from which the KD value with respect to NRAS or HRAS was not obtained.

HRAS wild-type protein = HRAS wild-type protein (Homo sapiens, UniProt P01112); experiment: Binding to HRAS by surface plasmon resonance (SPR), KD and KD ratio to KRAS; conditions: ratio of KD for HRAS wild-type protein to KD for KRAS
Method: as §1, §2, §3

Sequence of HRAS wild-type protein (P01112 whole entry): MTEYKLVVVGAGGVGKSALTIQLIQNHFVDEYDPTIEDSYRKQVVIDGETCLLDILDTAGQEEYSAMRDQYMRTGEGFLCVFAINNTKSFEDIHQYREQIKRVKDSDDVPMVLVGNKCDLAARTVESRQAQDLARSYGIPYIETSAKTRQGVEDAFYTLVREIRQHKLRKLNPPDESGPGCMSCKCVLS
Sequence of GDP-bound NRAS wild-type protein (P01111 whole entry): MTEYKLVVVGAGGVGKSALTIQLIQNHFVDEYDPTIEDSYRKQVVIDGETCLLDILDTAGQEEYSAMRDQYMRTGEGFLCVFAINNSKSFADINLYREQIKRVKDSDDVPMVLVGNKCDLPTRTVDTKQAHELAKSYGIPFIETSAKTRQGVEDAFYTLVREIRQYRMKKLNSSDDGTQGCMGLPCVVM

Structure (SMILES) | IC50 [1] [nM] | NRAS /KRAS [2] | HRAS /KRAS (HRAS wild-type protein)
CCCC[C@@H]1NC(=O)[C@H](CCc2ccc(C(F)(F)F)c(Cl)c2)NC(=O)CN(C)C(=O)[C@H](Cc2ccc(C)cc2)N(C)C(=O)[C@@H]2CCN2C(=O)[C@H](C)N(C)C(=O)[C@H]([C@@H](C)CC)NC(=O)[C@H](CC(C)C)N(C)C(=O)C[C@@H](C(=O)N2CCCCC2)N(C)C(=O)[C@H](CC(C)C)NC(=O)C(C)(C)N(C)C1=O [PP0047] ([NMeL]I[NMeA][Aze][NMePhe(4-Me)][Sar][hPhe(3-Cl-4-CF3)][Nle][NMeAib]L[NMeD]-Piperidide; lactam N-11) | 229 | C (A compound having a KD ratio of 0.1 or more and less than 3 is denoted as C) | C (A compound having a KD ratio of 0.1 or more and less than 3 is denoted as C)
CCCC[C@@H]1NC(=O)[C@H](CCc2ccc(C(F)(F)F)c(Cl)c2)NC(=O)CN(C)C(=O)[C@H](Cc2ccc(C)cc2)N(CC)C(=O)[C@@H]2CCN2C(=O)[C@H](C)N(C)C(=O)[C@H]([C@@H](C)CC)NC(=O)[C@H](CC(C)C)N(C)C(=O)C[C@@H](C(=O)N2CCCCC2)N(C)C(=O)[C@H](CC(C)C)NC(=O)C(C)(C)N(C)C1=O [PP0048] ([NMeL]I[NMeA][Aze][NEtPhe(4-Me)][Sar][hPhe(3-Cl-4-CF3)][Nle][NMeAib]L[NMeD]-Piperidide; lactam N-11) | 464 | C (A compound having a KD ratio of 0.1 or more and less than 3 is denoted as C) | C (A compound having a KD ratio of 0.1 or more and less than 3 is denoted as C)

Continued, in another order:

IC50 [1] [nM] | Structure (SMILES) | NRAS /KRAS [2] | HRAS /KRAS (HRAS wild-type protein)
7.2 | CCO[C@@H]1C[C@H]2C(=O)NC3(CCCC3)C(=O)N(C)[C@@H](C3CCCC3)C(=O)N(C)[C@H](C(=O)N3CCOCC3)CC(=O)N(C)[C@@H](CC(C)C)C(=O)N[C@@H]([C@@H](C)CC)C(=O)N(C)CC(=O)N(C)CC(=O)N(CC)[C@@H](Cc3ccc(C)cc3)C(=O)N(C)CC(=O)N[C@@H](CCc3ccc(C(F)(F)F)c(Cl)c3)C(=O)N2C1 [PP0042] ([NMeL]I[Sar][Sar][NEtPhe(4-Me)][Sar][hPhe(3-Cl-4-CF3)][Hyp](Et)[Ac5c][NMeGly(cPent)][NMeD]-Morpholide; lactam N-11) | C (A compound having a KD ratio of 0.1 or more and less than 3 is denoted as C) | C (A compound having a KD ratio of 0.1 or more and less than 3 is denoted as C)
20.4 | CC[C@H](C)[C@@H]1NC(=O)[C@H](CC(C)C)N(C)C(=O)C[C@@H](C(=O)N2CCOCC2)N(C)C(=O)[C@H]([C@@H](C)CC)N(C)C(=O)C2(CCCC2)NC(=O)[C@@H]2CCCN2C(=O)[C@H](CCc2ccc(C(F)(F)F)c(Cl)c2)NC(=O)CN(C)C(=O)[C@H](Cc2ccc(C)cc2)N(CC)C(=O)CN(C)C(=O)CN(C)C1=O [PP0043] ([NMeL]I[Sar][Sar][NEtPhe(4-Me)][Sar][hPhe(3-Cl-4-CF3)]P[Ac5c][NMeI][NMeD]-Morpholide; lactam N-11) | C (A compound having a KD ratio of 0.1 or more and less than 3 is denoted as C) | C (A compound having a KD ratio of 0.1 or more and less than 3 is denoted as C)
292 | CC[C@H](C)[C@@H]1NC(=O)[C@H](CC(C)C)N(C)C(=O)C[C@@H](C(=O)N2CCOCC2)N(C)C(=O)[C@H](CC(C)C)N(C)C(=O)C2(CCCC2)NC(=O)[C@@H]2CCCN2C(=O)[C@H](CCc2ccc(C(F)(F)F)c(Cl)c2)NC(=O)CN(C)C(=O)[C@H](Cc2ccc(C)cc2)N(CC)C(=O)CN(C)C(=O)CN(C)C1=O [PP0045] ([NMeL]I[Sar][Sar][NEtPhe(4-Me)][Sar][hPhe(3-Cl-4-CF3)]P[Ac5c][NMeL][NMeD]-Morpholide; lactam N-11) | C (A compound having a KD ratio of 0.1 or more and less than 3 is denoted as C) | C (A compound having a KD ratio of 0.1 or more and less than 3 is denoted as C)
